# According to US9409893B2, “Heteroaryl derivatives and uses thereof” (Jacobus Pharmaceutical Company, Inc., priority 2012, dated 2016):
# Where a name gives a salt, the structure may show the parent alone. Read-outs that look alike come from different tables or passages of the source.
# Experiments:
# [1] = system: P. falciparum strain D6; test: [3H]-hypoxanthine growth inhibition assay, P. falciparum D6; format: cell-based; details: Plasmodium falciparum
# Procedure: (§1) The potential for antimalarial activity against Plasmodium falciparum was determined by measuring the incorporation of tritiated hypoxanthine into parasitized red blood cells.
# (§2) Stock solutions of the test compounds and the reference drug chloroquine (CQ) (Sigma Chemicals C-6628, Lot #059H0919) were prepared in silanized glass vials with AquaSil™ (Pierce, USA) to minimize absorption of the compounds to glassware. All test compounds were dissolved in DMSO (Sigma Cat No. #D8418) to 1 mM concentration, whereas CQ was dissolved in 50% methanol at a concentration of 1.6 mg/ml (base). Stock solutions were stored at −20° C.
# (§3) The P. falciparum laboratory adapted strains utilized in this project (Table 1) were in vitro cultured and routinely maintained in RPMI-1640-LPLF complete medium, which contained low concentrations of para-amino benzoic acid (0.0005 mg/L) and folic acid (0.01 mg/L).
# (§4) The low concentration of folic acid in RPMI-1640-LPLF prevents inhibition of the compound if its activity targets the parasite's folate metabolic pathway. Parasites were cultured in human red blood cells (RBCs) in vitro at 37° C. in special gas mixture (5% O2, 5% CO2 and 90% N2) as described Trager and Jensen (1979 Science 193:673-675).
# (§5) Base cultivation medium consisted of 10.4 g/L RPMI-1640-LPLF powder (Gibco BRL), 5.97 g/L HEPES buffer (MP Biomedicals, USA), 2.0 g/L D-glucose (BDH chemicals, Australia), 0.05 g/L hypoxanthine (Sigma, USA) and 40 mg/L gentamycin (Pfizer, Australia). The pH of the medium was adjusted to 6.9 and the solution was filtered using 0.2 μm pore size (AcroCap, Gelman Science, USA). Complete medium was prepared by adding sodium bicarbonate solution (final concentration, 0.21%) and drug-free heat-inactivated human plasma, pooled from various blood types, obtained from the Australian Red Cross Blood Service (Brisbane) (final concentration, 10%) to the base RPMI-1640-LPLF. For [^3H]-hypoxanthine inhibition growth assay, RPMI-1640-LPLF complete medium which lacked [^3H]-hypoxanthine ([^3H]-RPMI-1640-LPLF) was used to prevent uptake of hypoxanthine by parasites, as radioactive hypoxanthine uptake is measured as a surrogate marker of growth. All complete medium was used within three days of preparation. See DE (Para) SOP 002 for methodology.
# (§6) Red blood cells (RBC) were required for P. falciparum parasites to proliferate in vitro. 0 (Rh+) type blood was obtained from the Australian Red Cross Blood Service. The RBC were washed twice in phosphate-buffered saline (PBS) and once in [^3H]-RPMI-1640-LPLF complete medium by centrifugation at 1,500×g for 5 min. Following the final wash, the haematocrit was measured as the percent of RBC to total culture volume. The haematocrit was adjusted to 50% by removing or adding [^3H]-RPMI-LPLF complete medium. See DE (Para) SOP 003 for methodology.
# (§7) All P. falciparum strains were grown in RPMI-1640-LPLF complete medium at 4% haematocrit and 1% to 8% parasitaemia at 37° C. in sealed flasks in a gas mixture of 5% O2, 5% CO2 and 90% N2 (BOC Gases, Brisbane, Australia). For drug susceptibility assays cultures were routinely synchronized when the majority of parasites (>85%) were at early trophozoite (ring) stage. Synchronization involved removing the more mature erythrocytic parasite stages by lysis, resulting in the retention only of early trophozoite (ring) stages. Synchronization was performed by re-suspending the infected red blood cell (iRBC) pellet in 5 to 10 times its volume of 5% D-sorbitol (Bacto Laboratories Pty. Ltd., Australia) for 5 min (Lambros and Vanderberg, 1979 J Parasitol 65: 418-420). The mixture was centrifuged (1,500 rpm for 5 min) and the supernatant removed. The iRBC were washed twice using PBS buffer and once using [^3H]-RPMI-LPLF plain medium. Following synchronization, a new culture was prepared with an initial parasitaemia of 1% in RPMI-LPLF complete medium. See DE (Para) SOP 008 for methodology.
# [2] = system: P. falciparum strain W2; test: [3H]-hypoxanthine growth inhibition assay, P. falciparum W2; format: cell-based; details: Plasmodium falciparum
# Procedure: as §1, §2, §3, §4, §5, §6, §7
# [3] = P. falciparum D6 (sensitive to chloroquine and pyrimethamine), [3H]-hypoxanthine incorporation, read-out: D6 IC50
# [4] = P. falciparum W2 (resistant to chloroquine and pyrimethamine), [3H]-hypoxanthine incorporation, read-out: W2 IC50
Structure (SMILES),"IC50 [1, 3] [nM]","IC50 [2, 4] [nM]","IC50 ([1]; D6, read-out: D6 IC50) [nM]","IC50 ([2]; W2, read-out: W2 IC50) [nM]"
"COc1cncc(-c2cc(C(C)(C)C)cc(CNC(C)(C)C)c2O)c1 [Example 17, 4-(tert-Butyl)-2-((tert-butylamino)methyl)-6-(5-methoxypyridin-3-yl)phenol dihydrochloride]",–,–,30,25
"CC(C)(C)NCc1cc(C(C)(C)C)cc(-c2cncc(C(F)(F)F)c2)c1O [Example 18, 4-(tert-Butyl)-2-((tert-butylamino)methyl)-6-(5-(trifluoromethyl)pyridin-3-yl)phenol 1.4 hydrochloride]",25,12,–,–
"CC(C)(C)NCc1cc(C(C)(C)C)cc(-c2ccnc(C(F)(F)F)c2)c1O [Example 20, 4-(tert-Butyl)-2-((tert-butylamino)methyl)-6-(2-(trifluoromethyl)pyridin-4-yl)phenol hydrochloride]",21,9,–,–
"CC(C)(C)NCc1cc(C(C)(C)C)cc(-c2cncc(Cl)c2)c1O [Example 21, 4-(tert-Butyl)-2-((tert-butylamino)methyl)-6-(5-chloropyridin-3-yl)phenol dihydrochloride]",–,–,17,8
"CC(C)(C)NCc1cc(C(C)(C)C)cc(-c2ccc(C(C)(C)C)nc2)c1O [Example 22, 4-(tert-Butyl)-2-(6-(tert-butyl)pyridin-3-yl)-6-((tert-butylamino)methyl)phenol dihydrochloride]",–,–,64,24
"CC(C)(C)NCc1cc(C(C)(C)C)cc(-c2ccc(Cl)nc2)c1O [Example 23, 4-(tert-Butyl)-2-((tert-butylamino)methyl)-6-(6-chloropyridin-3-yl)phenol hydrochloride]",19,12,–,–
"Cc1ccc(-c2cc(C(C)(C)C)cc(CNC(C)(C)C)c2O)nc1 [Example 25, 4-(tert-Butyl)-2-((tert-butylamino)methyl)-6-(5-methylpyridin-2-yl)phenol dihydrochloride]",–,–,≥ 20000,≥ 20000
"CC(C)(C)NCc1cc(C(C)(C)C)cc(-c2ccc(F)cn2)c1O [Example 26, 4-(tert-Butyl)-2-((tert-butylamino)methyl)-6-(5-fluoropyridin-2-yl)phenol 1.35hydrochloride]",1330,598,–,–
"CC(C)(C)NCc1cc(C(C)(C)C)cc(-c2ncccc2F)c1O [Example 27, 4-(tert-Butyl)-2-((tert-butylamino)methyl)-6-(3-fluoropyridin-2-yl)phenol 1.7hydrochloride]",6860,3440,–,–
"CC(C)(C)NCc1cc(C(C)(C)C)cc(-c2cc(C(F)(F)F)ccn2)c1O [Example 28, 4-(tert-Butyl)-2-((tert-butylamino)methyl)-6-(4-(trifluoromethyl)pyridin-2-yl)phenol hydrochloride]",357,111,–,–
"CC(C)(C)NCc1cc(C(C)(C)C)cc(-c2cccc(C(F)(F)F)n2)c1O [Example 29, 4-(tert-Butyl)-2-((tert-butylamino)methyl)-6-(6-(trifluoromethyl)pyridin-2-yl)phenol hydrochloride]",192,68,–,–
"Cc1ccc(-c2cc(C(C)(C)C)cc(CNC(C)(C)C)c2O)cn1 [Example 30, 4-(tert-Butyl)-2-((tert-butylamino)methyl)-6-(6-methylpyridin-3-yl)phenol dihydrochloride]",–,–,67,42
"CC(C)(C)NCc1cc(C(C)(C)C)cc(-c2ncccc2C(F)(F)F)c1O [Example 31, 4-(tert-Butyl)-2-((tert-butylamino)methyl)-6-(3-(trifluoromethyl)pyridin-2-yl)phenol 1.7hydrochloride]",5480,2270,–,–
"CC(C)(C)NCc1cc(C(C)(C)C)cc(-c2ccncc2C(F)(F)F)c1O [Example 35, 4-(tert-Butyl)-2-((tert-butylamino)methyl)-6-(3-(trifluoromethyl)pyridin-4-yl)phenol dihydrochloride]",–,–,549,144

# More lines, main results first:
"IC50 [1, 3] [nM]","IC50 [2, 4] [nM]",Structure (SMILES),"IC50 ([1]; D6, read-out: D6 IC50) [nM]","IC50 ([2]; W2, read-out: W2 IC50) [nM]"
38,11,"CC(C)(C)NCc1cc(C(C)(C)C)cc(-c2cnc(C(F)(F)F)cn2)c1O [Example 32, 4-(tert-Butyl)-2-((tert-butylamino)methyl)-6-(5-(trifluoromethyl)pyrazin-2-yl)phenol hydrochloride]",–,–
779,401,"CC(C)(C)NCc1cc(C(C)(C)C)cc(-c2cnccc2C(F)(F)F)c1O [Example 36, 4-(tert-Butyl)-2-((tert-butylamino)methyl)-6-(4-(trifluoromethyl)pyridin-3-yl)phenol 1.9hydrochloride]",–,–
5000,5000,"CC(C)(C)NCc1cc(-c2cccnc2)cc(-c2cccnc2)c1O [Example 37, 2-((tert-Butylamino)methyl)-4,6-di(pyridin-3-yl)phenol]",–,–
7000,5000,"CC(C)(C)NCc1cc(-c2ccc(C(F)(F)F)nc2)cc(-c2ccc(C(F)(F)F)nc2)c1O [Example 38, 2-((tert-Butylamino)methyl)-4,6-bis(6-(trifluoromethyl)pyridin-3-yl)phenol]",–,–
73,42,"CC(C)(C)NCc1cc(-c2ccc(Cl)c(C(F)(F)F)c2)cc(-c2ccc(C(F)(F)F)nc2)c1O [Example 39, 3-((tert-Butylamino)methyl)-4′-chloro-3′-(trifluoromethyl)-5-(6-(trifluoromethyl)pyridin-3-yl)-[1,1′-biphenyl]-4-ol hydrochloride]",–,–
231,79,"CC(C)(C)NCc1cc(C(C)(C)C)cc(-c2ccc(C(F)(F)F)cn2)c1O [Example 40, 4-(tert-Butyl)-2-((tert-butylamino)methyl)-6-(5-(trifluoromethyl)pyridin-2-yl)phenol]",–,–
275,106,"CN(Cc1cc(C(C)(C)C)cc(-c2ccc(C(F)(F)F)nc2)c1O)C(C)(C)C [Example 45, 4-(tert-Butyl)-2-((tert-butyl(methyl)amino)methyl)-6-(6-(trifluoromethyl)pyridin-3-yl)phenol hydrochloride]",–,–
2100,1970,"CC(C)(C)NCc1cc(C(C)(C)C)cc(-c2nccc(C(F)(F)F)n2)c1O [Example 46, 4-(tert-Butyl)-2-((tert-butylamino)methyl)-6-(4-(trifluoromethyl)pyrimidin-2-yl)phenol hydrochloride]",–,–
43,31,"CCN(CC)Cc1cc(C(C)(C)C)cc(-c2ccc(C(F)(F)F)nc2)c1O [Example 47, 4-(tert-Butyl)-2-((diethylamino)methyl)-6-(6-(trifluoromethyl)pyridin-3-yl)phenol hydrochloride]",–,–
5,5,"CC(C)NCc1cc(C(C)(C)C)cc(-c2ccc(C(F)(F)F)nc2)c1O [Example 48, 4-(tert-Butyl)-2-((isopropylamino)methyl)-6-(6-(trifluoromethyl)pyridin-3-yl)phenol hydrochloride]",–,–
244,214,"CC(C)(C)c1cc(CN2CCOCC2)c(O)c(-c2ccc(C(F)(F)F)nc2)c1 [Example 49, 4-(tert-Butyl)-2-(morpholinomethyl)-6-(6-(trifluoromethyl)pyridin-3-yl)phenol hydrochloride]",–,–
